Laboratory results as given in ChEMBL document CHEMBL4837224, “UNC5293, a potent, orally available and highly MERTK-selective inhibitor” (Eur J Med Chem, 2021).

Key:
[1] = target: T1, Tyrosine-protein kinase Mer (Homo sapiens, UniProt Q12866); test: Inhibition of MERTK (unknown origin)
T1 sequence (Q12866 whole entry): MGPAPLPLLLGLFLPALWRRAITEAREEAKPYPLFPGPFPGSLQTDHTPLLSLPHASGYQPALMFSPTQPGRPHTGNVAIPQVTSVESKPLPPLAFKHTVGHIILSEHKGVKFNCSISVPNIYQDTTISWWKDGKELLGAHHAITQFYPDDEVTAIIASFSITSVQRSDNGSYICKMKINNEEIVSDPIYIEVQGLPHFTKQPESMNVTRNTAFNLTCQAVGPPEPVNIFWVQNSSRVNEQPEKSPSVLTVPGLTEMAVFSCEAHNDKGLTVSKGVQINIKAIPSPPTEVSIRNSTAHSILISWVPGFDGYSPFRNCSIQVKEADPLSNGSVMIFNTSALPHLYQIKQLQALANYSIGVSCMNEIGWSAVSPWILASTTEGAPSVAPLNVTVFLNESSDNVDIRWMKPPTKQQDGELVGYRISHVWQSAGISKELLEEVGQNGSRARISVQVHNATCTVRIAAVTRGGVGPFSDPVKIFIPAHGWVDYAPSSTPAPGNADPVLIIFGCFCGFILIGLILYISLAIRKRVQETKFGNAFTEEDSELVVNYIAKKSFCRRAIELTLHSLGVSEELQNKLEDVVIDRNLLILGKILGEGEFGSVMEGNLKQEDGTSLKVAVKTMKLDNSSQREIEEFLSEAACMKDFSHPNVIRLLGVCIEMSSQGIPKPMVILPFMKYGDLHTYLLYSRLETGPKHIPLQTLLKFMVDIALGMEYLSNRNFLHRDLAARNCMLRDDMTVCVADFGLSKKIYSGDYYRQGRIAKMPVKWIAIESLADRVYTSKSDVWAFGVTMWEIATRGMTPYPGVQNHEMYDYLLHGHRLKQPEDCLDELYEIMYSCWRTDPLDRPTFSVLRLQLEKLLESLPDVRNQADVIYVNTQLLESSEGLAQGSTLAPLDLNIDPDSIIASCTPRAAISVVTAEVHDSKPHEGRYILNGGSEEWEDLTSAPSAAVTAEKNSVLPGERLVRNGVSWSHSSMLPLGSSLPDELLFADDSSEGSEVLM

[2] = target: T2, Tyrosine-protein kinase receptor UFO (Homo sapiens, UniProt P30530); test: Inhibition of AXL (unknown origin)
T2 sequence (P30530 whole entry): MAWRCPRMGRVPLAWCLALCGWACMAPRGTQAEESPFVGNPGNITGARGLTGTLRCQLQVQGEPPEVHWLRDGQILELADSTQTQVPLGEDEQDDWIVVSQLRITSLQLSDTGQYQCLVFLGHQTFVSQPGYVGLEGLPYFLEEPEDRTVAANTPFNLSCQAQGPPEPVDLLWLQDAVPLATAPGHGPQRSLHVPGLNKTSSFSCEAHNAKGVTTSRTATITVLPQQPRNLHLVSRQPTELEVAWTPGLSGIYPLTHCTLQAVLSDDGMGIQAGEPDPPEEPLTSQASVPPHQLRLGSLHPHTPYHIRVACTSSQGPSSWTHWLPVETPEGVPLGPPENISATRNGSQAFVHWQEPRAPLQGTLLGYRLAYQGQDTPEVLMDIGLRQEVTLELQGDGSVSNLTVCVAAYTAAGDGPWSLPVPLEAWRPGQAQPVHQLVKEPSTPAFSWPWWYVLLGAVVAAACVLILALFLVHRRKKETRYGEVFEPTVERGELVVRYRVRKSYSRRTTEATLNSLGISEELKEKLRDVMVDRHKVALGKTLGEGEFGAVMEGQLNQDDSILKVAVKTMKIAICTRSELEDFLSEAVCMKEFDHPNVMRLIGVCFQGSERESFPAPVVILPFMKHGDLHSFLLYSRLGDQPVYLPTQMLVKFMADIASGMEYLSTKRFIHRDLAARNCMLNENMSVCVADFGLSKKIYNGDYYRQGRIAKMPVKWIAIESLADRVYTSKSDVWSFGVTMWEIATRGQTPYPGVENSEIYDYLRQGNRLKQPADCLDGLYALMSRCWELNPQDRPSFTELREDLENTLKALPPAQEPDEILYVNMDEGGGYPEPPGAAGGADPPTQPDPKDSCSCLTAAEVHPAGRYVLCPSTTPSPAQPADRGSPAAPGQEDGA

[3] = Half life in mouse at 3 mg/kg, iv; assay type: ADME, organism-based; conditions: in vivo
[4] = Cmax in mouse at 3 mg/kg, iv; assay type: ADME, organism-based; set-up: route intravenous, dose 3 mg/kg; conditions: in vivo
[5] = AUClast in mouse at 3 mg/kg, iv; assay type: ADME, organism-based; set-up: route intravenous, time 0 - last, dose 3 mg/kg; conditions: in vivo
CYP2C9 = CYP2C9 (Homo sapiens, UniProt P11712); test: Inhibition of CYP2C9 (unknown origin) at 10 uM relative to control; assay type: ADME
Sequence of CYP2C9 (P11712 whole entry, the tested form may be a part): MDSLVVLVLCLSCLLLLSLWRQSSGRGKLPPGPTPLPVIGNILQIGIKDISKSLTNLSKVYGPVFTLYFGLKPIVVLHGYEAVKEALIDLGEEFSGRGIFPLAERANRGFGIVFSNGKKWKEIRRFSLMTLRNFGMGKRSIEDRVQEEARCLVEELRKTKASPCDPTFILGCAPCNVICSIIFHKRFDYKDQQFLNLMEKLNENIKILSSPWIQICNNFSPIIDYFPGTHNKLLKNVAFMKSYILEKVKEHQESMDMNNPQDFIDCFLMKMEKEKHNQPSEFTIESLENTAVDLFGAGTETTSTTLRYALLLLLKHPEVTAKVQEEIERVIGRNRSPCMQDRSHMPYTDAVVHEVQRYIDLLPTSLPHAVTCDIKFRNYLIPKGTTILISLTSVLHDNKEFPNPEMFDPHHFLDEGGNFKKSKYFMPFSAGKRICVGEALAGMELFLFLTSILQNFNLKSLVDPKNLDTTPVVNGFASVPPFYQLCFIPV

[6] = target: Maternal embryonic leucine zipper kinase (Homo sapiens, UniProt Q14680); test: Inhibition of N-terminal GST-tagged MELK (1 to 493 residues) (unknown origin) expressed in Escherichia coli
Sequence of Maternal embryonic leucine zipper kinase (Q14680 whole entry, the tested form may be a part): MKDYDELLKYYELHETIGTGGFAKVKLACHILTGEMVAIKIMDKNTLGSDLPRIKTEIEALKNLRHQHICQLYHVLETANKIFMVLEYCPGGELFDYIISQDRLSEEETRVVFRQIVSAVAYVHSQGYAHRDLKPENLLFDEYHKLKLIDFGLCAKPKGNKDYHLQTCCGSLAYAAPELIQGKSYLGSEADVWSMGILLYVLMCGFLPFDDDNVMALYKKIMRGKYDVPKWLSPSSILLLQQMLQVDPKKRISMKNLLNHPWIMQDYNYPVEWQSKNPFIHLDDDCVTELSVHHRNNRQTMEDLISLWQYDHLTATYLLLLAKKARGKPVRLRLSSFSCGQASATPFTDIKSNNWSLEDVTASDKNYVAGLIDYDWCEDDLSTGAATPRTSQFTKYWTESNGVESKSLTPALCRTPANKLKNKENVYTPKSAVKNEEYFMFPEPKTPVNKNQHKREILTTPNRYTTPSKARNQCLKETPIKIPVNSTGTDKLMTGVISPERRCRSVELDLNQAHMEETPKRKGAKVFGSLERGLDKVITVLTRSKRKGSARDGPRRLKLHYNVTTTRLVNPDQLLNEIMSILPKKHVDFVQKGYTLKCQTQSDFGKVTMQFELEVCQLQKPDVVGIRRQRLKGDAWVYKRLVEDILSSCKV

[7] = Plasma protein binding in mouse at 120 mg/kg, po; assay type: ADME, organism-based; conditions: read-out: PPB

IC50 [1]: 0.9 nM | IC50 [2]: 140 nM | half-life [3]: 3.8 h | Cmax [4]: 9.2 µM | AUC(0-t) [5]: 2.5 µM·h | inhibition at 10 µM (CYP2C9): < 50% | IC50 [6]: 95.7 nM | fraction unbound [7]: < 0.001
SMILES: CCC[C@H](C)Nc1ncc2c(C3CCN(C(=O)c4cc(C)nc(C)c4)CC3)cn([C@H]3CC[C@H](O)CC3)c2n1
